From paper PMC10302299, “Spruce Balm-Based Semisolid Vehicles for Wound Healing: Effect of Excipients on Rheological Properties and Ex Vivo Skin Permeation” (Pharmaceutics, 2023)
Read-outs that look alike come from different tables or passages of the source.

Assays:
[1] = cited from earlier work
[2] = Ex vivo skin permeation, static Franz-type diffusion cells, HPLC-DAD relative quantification; type: in vitro ADME, porcine; conditions: for total permeated amounts (AUC), comparison of the two ointments: after 32 h, lard ointment versus wool wax/castor oil ointment; for Enhancement Factor: mean flux from lard versus wool wax/castor oil; for Mean Flux Based on AUC/cm^2/h (relative mass flux): infinite dose 500 mg, 32 °C, n = 9 cells; for time after which detectable in acceptor samples: wool wax/castor oil and Picea-Salbe ointments
Experimental: Skin permeation studies were performed using dermatomed porcine ear skin and static Franz-type diffusion cells (PermeGear, Hellertown, PA, USA, permeation area of 0.95 cm^2, acceptor volume of 2 mL). Porcine ears were obtained after sacrifice from a local abattoir (Johann Gantner GmbH, Gemeinde Hollabrunn, Austria, male and female animals at six months of age). The ears were cleaned under running water and were dried and stored at −18 °C until use.
Fresh vehicles were prepared 48 h before the start of the experiments. Skin from the dorsal side of the ears was cut to a thickness of 400 µm with a dermatome (Aesculap GA 630 DBP, Aesculap AG, Tuttlingen, Germany). Hair was removed with scissors. The skin was cut into 1 × 1 cm pieces and was clamped between donor and acceptor chamber. The acceptor medium consisted of a mixture of phosphate-buffered saline and ethanol (60:40% v/v) to ensure sink conditions. The phosphate-buffered saline was prepared as described in the Pharmacopoeia Europaea (0.012 M, pH of 7.4, 0.238% w/w sodium monohydrogen phosphate, 0.019% w/w potassium dihydrogen phosphate, and 0.8% w/w sodium chloride). Before starting the experiments, the transepidermal water loss (TEWL) was measured with a closed-chamber device and a coupling adapter (Aquaflux® AF200, Biox Systems Ltd., London, UK) to ensure consistent skin quality and barrier function.
The ointments were applied to the donor chambers at infinite dose conditions (500 mg of formulation). The donor compartment and sampling arm were occluded with Parafilm to prevent evaporation of sample or acceptor fluid. The diffusion cells were kept in a water bath at 32 °C to simulate skin surface temperature. Magnetic stirring was employed to avoid concentration layers within the acceptor fluid. Cells were regularly checked for air bubbles. After predefined intervals (2, 4, 6, 8, 24, 28, and 32 h), an aliquot of 200 μL of acceptor medium was taken for analysis and was replaced with fresh acceptor medium at 32 °C.
The most suitable formulation was chosen for analysis of permeation potential as well as the commercial product Picea-Salbe®. Three individual permeation experiments with n = 3 cells were performed for formulations and controls. The final results depict mean values ± SDs of n = 9 cells per formulation. As controls, the respective ointment bases without PSB as well as the plain acceptor medium alone were used.
For the analysis of samples drawn from Franz diffusion cells, a Shimadzu HPLC instrumentation with diode array detection (SHIMADZU Autosampler SIL-20AC HAT, SHIMADZU Column Oven CTO-20AC, SHIMADZU Communications Bus Module CBM-20A, SHIMADZU Degasser DGU-20A5, SHIMADZU Diode Array Detector SPD-M20A, SHIMADZU Liquid Chromatograph LC-20AD, SHIMADZU LabSolutions Software 5.81, Shimadzu, Kyoto, Japan) was used. A reversed-phase C18 column (LiChrospher 100 RP18e, 5 μm, 250 × 4 mm, Merck KGaA, Darmstadt, Germany) was employed as stationary phase. Double-distilled water + 0.1% formic acid (solvent A) and acetonitrile + 0.1% formic acid (solvent B) served as mobile phase, and gradient elution at 1 mL/min flow rate was applied as follows: 15% solvent B rose to 95% solvent B within 45 min (rate of 1.77%/min) followed by 5 min washing step at 98% solvent B and re-equilibration for 10 min with 15% solvent B. Samples drawn from Franz diffusion cells were centrifuged, and 10 μL were injected into the system. PSB samples were dissolved in acetone to a final concentration of 5 mg/mL, and 2 μL were analyzed. […] Peak areas (AUC) were obtained using the SHIMADZU LabSolutions Software 5.81 (Shimadzu, Kyoto, Japan) and were further utilized for interpretation of data.

[3] = vehicle lard (Picea-Salbe, 20% spruce balm)
[4] = vehicle wool wax/castor oil with 20% PSB (batch PSB5)

## C=C[C@@]1(C)C=C2CC[C@@H]3[C@](C)(CCC[C@@]3(C)C(=O)O)[C@H]2CC1 [Pimaric acid]
[1]; Diterpene resin acids (302 Da)
  Effects contributing to wound healing: re-epithelialization boosting [9], antimicrobial [24, 25, 26, 27], anti-inflammatory [28, 29, 30], and antioxidant effects [31]

## CC(C)=C1C=C2CCC3C(C)(C(=O)O)CCCC3(C)C2CC1 (centres unmarked) [Neoabietic acid]
[1]; Diterpene resin acids (302 Da)
  Effects contributing to wound healing: re-epithelialization boosting [9], antimicrobial [24, 25, 26, 27], anti-inflammatory [28, 29, 30], and antioxidant effects [31]

## CC(C)c1ccc2c(c1)CC[C@H]1[C@](C)(C(=O)O)CCC[C@]21C [dehydroabietic acid, Dehydroabietic acid]
[1]; Diterpene resin acids (300 Da)
  Effects contributing to wound healing: re-epithelialization boosting [9], anti-inflammatory [23], and antimicrobial effects [24]
[2]
  total permeated amounts (AUC), comparison of the two ointments: highly comparable
  Enhancement Factor: 1.1
  time after which detectable in acceptor samples: 8 h
[2]; [3]
  Mean Flux Based on AUC/cm^2/h (relative mass flux): 24.041 ± 7.099 AUC/cm^2/h
[2]; [4]
  Mean Flux Based on AUC/cm^2/h (relative mass flux): 21.848 ± 7.791 AUC/cm^2/h

## CC(C)C1=CC2=C(CC1)[C@@]1(C)CCC[C@@](C)(C(=O)O)[C@@H]1CC2 [Palustric acid]
[1]; Diterpene resin acids (302 Da)
  Effects contributing to wound healing: re-epithelialization boosting [9], antimicrobial [24, 25, 26, 27], anti-inflammatory [28, 29, 30], and antioxidant effects [31]

## C=C[C@@]1(C)CC[C@H]2C(=CC[C@@H]3[C@]2(C)CCC[C@@]3(C)C(=O)O)C1 [Isopimaric acid]
[1]; Diterpene resin acids (302 Da)
  Effects contributing to wound healing: re-epithelialization boosting [9], antimicrobial [24, 25, 26, 27], anti-inflammatory [28, 29, 30], and antioxidant effects [31]

## CC(C)c1ccc2c(c1)C(O)CC1[C@](C)(C(=O)O)CCC[C@]21C (some centres unmarked) [7-Hydroxy-dehydroabietic acid]
[1]; Hydroxylated resin acids
  Effects contributing to wound healing: re-epithelialization boosting [9], antimicrobial [22], and anti-inflammatory effects [23]

## CC(C)C1=CC[C@H]2C(=C1)CC[C@@H]1[C@]2(C)CCC[C@@]1(C)C(=O)O [Levopimaric acid]
[1]; Diterpene resin acids (302 Da)
  Effects contributing to wound healing: re-epithelialization boosting [9], antimicrobial [24, 25, 26, 27], anti-inflammatory [28, 29, 30], and antioxidant effects [31]

## CC(C)(O)c1ccc2c(c1)CC[C@H]1[C@](C)(C(=O)O)CCC[C@]21C [15-hydroxy-dehydroabietic acid, 15-Hydroxy-dehydroabietic acid]
[1]; Hydroxylated resin acids
  Effects contributing to wound healing: re-epithelialization boosting [9], antimicrobial [22], and anti-inflammatory effects [23]
[2]
  total permeated amounts (AUC), comparison of the two ointments: a similar trend was observed
  Enhancement Factor: 1.8
  time after which detectable in acceptor samples: 24 h
[2]; [3]
  Mean Flux Based on AUC/cm^2/h (relative mass flux): 25.558 ± 9.673 AUC/cm^2/h
[2]; [4]
  Mean Flux Based on AUC/cm^2/h (relative mass flux): 13.606 ± 6.196 AUC/cm^2/h

## O=C(O)C=Cc1ccc(O)cc1 [p-Coumaric acid]
[1]; Hydroxycinnamic acids
  Effects contributing to wound healing: antioxidant, antimicrobial, and anti-inflammatory effects [19]

## Pinoresinol
[1]; Lignans
  Effects contributing to wound healing: antifungal [20], antioxidant, anti-inflammatory [21], and re-epithelialization boosting effects [9]

## C=C[C@]1(C)C=C2CC[C@@H]3[C@](C)(CCC[C@@]3(C)C(=O)O)[C@H]2CC1 [Sandaracopimaric acid]
[1]; Diterpene resin acids (302 Da)
  Effects contributing to wound healing: re-epithelialization boosting [9], antimicrobial [24, 25, 26, 27], anti-inflammatory [28, 29, 30], and antioxidant effects [31]

## CC(C)(O)c1ccc2c(c1)[C@H](O)CC1[C@](C)(C(=O)O)CCC[C@]21C (stereo partly drawn) [7α,15-Dihydroxy-dehydroabietic acid]
[1]; Hydroxylated resin acids
  Effects contributing to wound healing: re-epithelialization boosting [9], antimicrobial [22], and anti-inflammatory effects [23]

## O=C(O)/C=C/c1ccc(O)c(O)c1 [Caffeic acid]
[1]; Hydroxycinnamic acids
  Effects contributing to wound healing: antioxidant, antimicrobial, and anti-inflammatory effects [19]

## COc1cc(/C=C/C(=O)O)ccc1O [Ferulic acid]
[1]; Hydroxycinnamic acids
  Effects contributing to wound healing: antioxidant, antimicrobial, and anti-inflammatory effects [19]

## CC(C)C1=CC2=CC[C@@H]3[C@](C)(CCC[C@@]3(C)C(=O)O)[C@H]2CC1 [Abietic acid]
[1]; Diterpene resin acids (302 Da)
  Effects contributing to wound healing: re-epithelialization boosting [9], antimicrobial [24, 25, 26, 27], anti-inflammatory [28, 29, 30], and antioxidant effects [31]

## CC(C)(O)c1ccc2c(c1)[C@@H](O)CC1[C@](C)(C(=O)O)CCC[C@]21C (stereo partly drawn) [7β,15-Dihydroxy-dehydroabietic acid]
[1]; Hydroxylated resin acids
  Effects contributing to wound healing: re-epithelialization boosting [9], antimicrobial [22], and anti-inflammatory effects [23]
